Measured values taken from patent US4317815A, “LH-RH Antagonists” (priority 1979, dated 1982).
*1 amine or outer side, *2 acyl side, *3 side chain or, on linkers, in order; H or OH if unused. Where a SMILES comes first, the peptide text is derived from it. [ ]: non-standard residue; d: D form. dPhe(4-Br) = N[C@H](Cc1ccc(Br)cc1)C(=O)O; dPhe(4-Cl) = N[C@H](Cc1ccc(Cl)cc1)C(=O)O; dPhe(4-F) = N[C@H](Cc1ccc(F)cc1)C(=O)O; Suc = O=C(CCC(=O)[*:2])[*:1]

System: mature female rats
Test: Antiovulatory activity (blockade of ovulation) in proestrus female rats, test of de la Cruz et al.
Type: in vivo, rat
Conditions: 12 noon of proestrus
Method: The analogs are administered in 20% propylene glycol in physiologic saline (see Table I) or as a suspension in corn oil (see Table II) at 12 noon of the day of proestrus. On the following day, the rats are sacrificed, their fallopian tubes and uteri flushed with saline and the washed examined for ova.
The test results for several analogs are given in Table I. In Table II, a comparison, between the compound of formula I in which X is acetyl, R^1 is D-Phe, R^2 is D-p-Cl-Phe, R^3 is D-Trp, R^4 is D-Trp and R^5 is Gly, the title compound of Example 7, and the compound of the prior art, [Ac-D-Phe^1, D-Phe^2, D-Trp^3,6 ]-LH-RH, noted hereinbefore, is shown. As noted above, a different carrier is used for administering the compounds in Table I than in Table II.

[1] = Table I, dose 0.25 mg, in 20% propylene glycol in physiologic saline, ova examined the following day
[2] = Table I, dose 0.062 mg, in 20% propylene glycol in physiologic saline
[3] = Table I, dose 0.125 mg, in 20% propylene glycol in physiologic saline
[4] = Table I, dose 0.015 mg, in 20% propylene glycol in physiologic saline

## CC(C)C[C@H](NC(=O)[C@@H](Cc1ccccc1)NC(=O)[C@H](Cc1ccc(O)cc1)NC(=O)[C@H](CO)NC(=O)[C@@H](Cc1c[nH]c2ccccc12)NC(=O)[C@@H](Cc1ccc(F)cc1)NC(=O)[C@H](N)Cc1ccccc1)C(=O)N[C@@H](CCCNC(=N)N)C(=O)N1CCC[C@H]1C(=O)NCC(N)=O [D-Phenylalanyl-D-p-fluorophenylalanyl-D-tryptophyl-L-seryl-L-tyrosyl-D-phenylalanyl-L-leucyl-L-arginyl-L-prolyl-glycinamide] (H-[dF][dPhe(4-F)][dW]SY[dF]LRPG-NH2)
[1]
  % Blockade of Ovulation: 10%

## CC(=O)N[C@H](Cc1ccccc1)C(=O)N[C@H](Cc1ccc(Cl)cc1)C(=O)N[C@H](Cc1c[nH]c2ccccc12)C(=O)N[C@@H](CO)C(=O)N[C@@H](Cc1ccc(O)cc1)C(=O)N[C@H](Cc1c[nH]c2ccccc12)C(=O)N[C@@H](CC(C)C)C(=O)N[C@@H](CCCNC(=N)N)C(=O)N1CCC[C@H]1C(=O)NCC(N)=O [Example 7, N-Acetyl-D-phenylalanyl-D-p-chlorophenylalanyl-D-tryptophyl-L-seryl-L-tyrosyl-D-tryptophyl-L-leucyl-L-arginyl-L-prolyl-glycinamide] (Ac-[dF][dPhe(4-Cl)][dW]SY[dW]LRPG-NH2)
Table I, dose 0.031 mg, in 20% propylene glycol in physiologic saline
  % Blockade of Ovulation: 64%
[2]
  % Blockade of Ovulation: 100%
Table II, dose 15 mcg, suspension in corn oil
  % Blockade of Ovulation: 100%
Table II, dose 31 mcg, suspension in corn oil
  % Blockade of Ovulation: 100%

## CC(C)C[C@H](NC(=O)[C@@H](Cc1ccccc1)NC(=O)[C@H](Cc1ccc(O)cc1)NC(=O)[C@H](CO)NC(=O)[C@@H](Cc1c[nH]c2ccccc12)NC(=O)[C@@H](Cc1ccc(Br)cc1)NC(=O)[C@H](N)Cc1ccccc1)C(=O)N[C@@H](CCCNC(=N)N)C(=O)N1CCC[C@H]1C(=O)NCC(N)=O [Example 8, D-Phenylalanyl-D-p-bromophenylalanyl-D-tryptophyl-L-seryl-L-tyrosyl-D-phenylalanyl-L-leucyl-L-arginyl-L-prolyl-glycinamide] (H-[dF][dPhe(4-Br)][dW]SY[dF]LRPG-NH2)
[1]
  % Blockade of Ovulation: 50%

## CC(C)C[C@H](NC(=O)[C@@H](Cc1ccccc1)NC(=O)[C@H](Cc1ccc(O)cc1)NC(=O)[C@H](CO)NC(=O)[C@@H](Cc1c[nH]c2ccccc12)NC(=O)[C@@H](Cc1ccc(Cl)cc1)NC(=O)[C@H](N)Cc1ccccc1)C(=O)N[C@@H](CCCNC(=N)N)C(=O)N1CCC[C@H]1C(=O)NCC(N)=O [Example 9, D-Phenylalanyl-D-p-chlorophenylalanyl-D-tryptophyl-L-seryl-L-tyrosyl-D-phenylalanyl-L-leucyl-L-arginyl-L-prolyl-glycinamide] (H-[dF][dPhe(4-Cl)][dW]SY[dF]LRPG-NH2)
[3]
  % Blockade of Ovulation: 11%
[1]
  % Blockade of Ovulation: 82%

## CC(C)C[C@H](NC(=O)[C@@H](Cc1ccccc1)NC(=O)[C@H](Cc1ccc(O)cc1)NC(=O)[C@H](CO)NC(=O)[C@@H](Cc1c[nH]c2ccccc12)NC(=O)[C@@H](Cc1ccc(Cl)cc1)NC(=O)[C@@H](Cc1ccccc1)NC(=O)CCC(=O)O)C(=O)N[C@@H](CCCNC(=N)N)C(=O)N1CCC[C@H]1C(=O)NCC(N)=O [Example 10, N-Succinyl-D-phenylalanyl-D-p-chlorophenylalanyl-D-tryptophyl-L-seryl-L-tyrosyl-D-phenylalanyl-L-leucyl-L-arginyl-l-prolyl-glycinamide] (Suc-[dF][dPhe(4-Cl)][dW]SY[dF]LRPG-NH2)
[2]
  % Blockade of Ovulation: 50%
[3]
  % Blockade of Ovulation: 80%

## CC(=O)N[C@H](Cc1ccc(Cl)cc1)C(=O)N[C@H](Cc1ccc(Cl)cc1)C(=O)N[C@H](Cc1c[nH]c2ccccc12)C(=O)N[C@@H](CO)C(=O)N[C@@H](Cc1ccc(O)cc1)C(=O)N[C@H](Cc1c[nH]c2ccccc12)C(=O)N[C@@H](CC(C)C)C(=O)N[C@@H](CCCNC(=N)N)C(=O)N1CCC[C@H]1C(=O)NCC(N)=O [Example 14, N-Acetyl-D-p-chlorophenylalanyl-D-p-chlorophenylalanyl-D-tryptophyl-L-seryl-L-tyrosyl-D-tryptophyl-L-leucyl-L-arginyl-L-prolyl-glycinamide] (Ac-[dPhe(4-Cl)][dPhe(4-Cl)][dW]SY[dW]LRPG-NH2)
[4]
  % Blockade of Ovulation: 70%

## CC(=O)N[C@H](Cc1ccccc1)C(=O)N[C@H](Cc1ccc(Cl)cc1)C(=O)N[C@H](Cc1c[nH]c2ccccc12)C(=O)N[C@@H](CO)C(=O)N[C@@H](Cc1ccc(O)cc1)C(=O)N[C@H](Cc1c[nH]c2ccccc12)C(=O)N[C@@H](CC(C)C)C(=O)N[C@@H](CCCNC(=N)N)C(=O)N1CCC[C@H]1C(=O)N[C@H](C)C(N)=O [Example 16, N-Acetyl-D-phenylalanyl-D-p-chlorophenylalanyl-D-tryptophyl-L-seryl-L-tyrosyl-D-tryptophyl-L-leucyl-L-arginyl-L-prolyl-D-alaninamide] (Ac-[dF][dPhe(4-Cl)][dW]SY[dW]LRP[dA]-NH2)
[4]
  % Blockade of Ovulation: 100%

## CC(=O)N[C@H](Cc1ccccc1)C(=O)N[C@H](Cc1ccccc1)C(=O)N[C@H](Cc1c[nH]c2ccccc12)C(=O)N[C@@H](CO)C(=O)N[C@@H](Cc1ccc(O)cc1)C(=O)N[C@H](Cc1c[nH]c2ccccc12)C(=O)N[C@@H](CC(C)C)C(=O)N[C@@H](CCCNC(=N)N)C(=O)N1CCC[C@H]1C(=O)NCC(N)=O [[Ac-D-Phe^1, D-Phe^2, D-Trp^3,6]-LH-RH, reference compound] (Ac-[dF][dF][dW]SY[dW]LRPG-NH2)
Table II, dose 100 mcg, suspension in corn oil
  % Blockade of Ovulation: 40%
Table II, dose 250 mcg, suspension in corn oil
  % Blockade of Ovulation: 100%
